Measurements taken from article PMC6757289, “Design and Characterization of SGK3-PROTAC1, an Isoform Specific SGK3 Kinase PROTAC Degrader” (ACS Chemical Biology, 2019).
Where two headings read alike, the source gives them in different places.

Assays:
Assay in all cases: kinase profiling panel
Format in all cases: biochemical
Conditions in all cases: read-out: % Activity Remaining
GSK3 beta = GSK3 beta (Homo sapiens, UniProt P49841)
From the text: (§1) Protein kinase profiling against a Dundee panel of 140 protein kinases was undertaken at the International Centre for Protein Kinase Profiling. The result for each kinase was presented as a mean kinase activity of the reaction taken in triplicate relative to a control sample treated with DMSO. Assay conditions and abbreviations are available at http://www.kinase-screen.mrc.ac.uk.

Lck = Lck (Homo sapiens, UniProt P06239)
From the text: as §1

PRAK = target: T1, PRAK (Homo sapiens, UniProt Q8IW41)
T1 sequence (Q8IW41 1-473): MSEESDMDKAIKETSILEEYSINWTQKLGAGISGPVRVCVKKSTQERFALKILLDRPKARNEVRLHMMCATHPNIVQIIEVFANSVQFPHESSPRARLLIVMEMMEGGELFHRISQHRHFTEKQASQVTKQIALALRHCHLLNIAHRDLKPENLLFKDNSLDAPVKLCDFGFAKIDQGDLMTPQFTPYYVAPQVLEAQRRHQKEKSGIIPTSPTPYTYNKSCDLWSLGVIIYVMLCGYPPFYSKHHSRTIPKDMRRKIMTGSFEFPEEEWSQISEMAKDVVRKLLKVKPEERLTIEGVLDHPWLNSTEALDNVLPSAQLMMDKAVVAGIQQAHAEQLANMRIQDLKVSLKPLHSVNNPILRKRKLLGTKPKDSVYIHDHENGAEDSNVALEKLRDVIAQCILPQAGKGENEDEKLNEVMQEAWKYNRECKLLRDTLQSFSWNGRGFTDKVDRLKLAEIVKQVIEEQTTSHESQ
From the text: as §1

ULK2 = target: T2, ULK2 (Homo sapiens, UniProt Q8IYT8)
T2 sequence (Q8IYT8 1-1036): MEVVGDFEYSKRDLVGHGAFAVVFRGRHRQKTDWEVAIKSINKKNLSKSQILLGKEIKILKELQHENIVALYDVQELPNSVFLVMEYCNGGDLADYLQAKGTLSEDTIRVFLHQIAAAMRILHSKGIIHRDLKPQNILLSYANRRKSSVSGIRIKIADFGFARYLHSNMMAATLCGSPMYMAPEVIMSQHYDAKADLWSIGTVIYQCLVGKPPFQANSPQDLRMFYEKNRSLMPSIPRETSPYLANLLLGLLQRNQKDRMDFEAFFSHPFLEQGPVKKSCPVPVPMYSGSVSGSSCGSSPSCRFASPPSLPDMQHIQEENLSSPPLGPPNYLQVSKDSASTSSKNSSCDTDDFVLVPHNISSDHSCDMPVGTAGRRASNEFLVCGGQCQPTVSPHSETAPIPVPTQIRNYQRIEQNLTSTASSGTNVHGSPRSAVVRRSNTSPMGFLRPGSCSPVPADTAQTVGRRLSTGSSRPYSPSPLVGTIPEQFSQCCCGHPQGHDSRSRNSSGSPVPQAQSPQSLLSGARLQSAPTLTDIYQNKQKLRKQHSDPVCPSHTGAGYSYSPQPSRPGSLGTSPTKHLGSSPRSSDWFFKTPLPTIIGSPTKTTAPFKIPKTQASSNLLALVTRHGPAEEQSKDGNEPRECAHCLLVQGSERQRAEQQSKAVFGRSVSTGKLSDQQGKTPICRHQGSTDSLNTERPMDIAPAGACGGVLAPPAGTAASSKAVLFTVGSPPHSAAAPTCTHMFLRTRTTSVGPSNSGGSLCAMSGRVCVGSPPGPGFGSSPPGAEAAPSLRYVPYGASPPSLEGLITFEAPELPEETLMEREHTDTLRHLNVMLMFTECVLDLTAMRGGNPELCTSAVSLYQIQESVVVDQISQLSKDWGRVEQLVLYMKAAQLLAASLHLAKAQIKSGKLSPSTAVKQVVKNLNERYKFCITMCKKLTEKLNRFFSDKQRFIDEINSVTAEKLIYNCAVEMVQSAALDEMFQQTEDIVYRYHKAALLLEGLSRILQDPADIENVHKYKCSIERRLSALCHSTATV
From the text: as §1

NUAK1 = target: T3, NUAK1 (Homo sapiens, UniProt O60285)
T3 sequence (O60285 1-661): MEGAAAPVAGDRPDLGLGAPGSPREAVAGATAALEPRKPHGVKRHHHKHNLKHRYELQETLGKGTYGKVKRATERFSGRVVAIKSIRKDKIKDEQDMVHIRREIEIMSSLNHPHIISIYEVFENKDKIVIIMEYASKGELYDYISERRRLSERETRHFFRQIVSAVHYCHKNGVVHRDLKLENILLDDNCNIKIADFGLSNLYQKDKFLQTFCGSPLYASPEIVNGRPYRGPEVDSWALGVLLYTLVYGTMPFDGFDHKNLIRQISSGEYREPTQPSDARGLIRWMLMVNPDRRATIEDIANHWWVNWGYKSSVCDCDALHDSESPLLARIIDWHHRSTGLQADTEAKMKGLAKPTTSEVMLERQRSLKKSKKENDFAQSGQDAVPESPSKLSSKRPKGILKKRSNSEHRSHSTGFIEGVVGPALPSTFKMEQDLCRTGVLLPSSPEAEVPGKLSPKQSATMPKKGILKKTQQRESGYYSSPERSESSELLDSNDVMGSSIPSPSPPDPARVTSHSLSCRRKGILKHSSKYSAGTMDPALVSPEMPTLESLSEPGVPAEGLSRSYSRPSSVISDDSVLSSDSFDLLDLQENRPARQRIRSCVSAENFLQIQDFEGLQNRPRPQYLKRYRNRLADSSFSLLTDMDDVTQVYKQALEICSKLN
From the text: as §1

Chain of Lck (P06239 whole entry): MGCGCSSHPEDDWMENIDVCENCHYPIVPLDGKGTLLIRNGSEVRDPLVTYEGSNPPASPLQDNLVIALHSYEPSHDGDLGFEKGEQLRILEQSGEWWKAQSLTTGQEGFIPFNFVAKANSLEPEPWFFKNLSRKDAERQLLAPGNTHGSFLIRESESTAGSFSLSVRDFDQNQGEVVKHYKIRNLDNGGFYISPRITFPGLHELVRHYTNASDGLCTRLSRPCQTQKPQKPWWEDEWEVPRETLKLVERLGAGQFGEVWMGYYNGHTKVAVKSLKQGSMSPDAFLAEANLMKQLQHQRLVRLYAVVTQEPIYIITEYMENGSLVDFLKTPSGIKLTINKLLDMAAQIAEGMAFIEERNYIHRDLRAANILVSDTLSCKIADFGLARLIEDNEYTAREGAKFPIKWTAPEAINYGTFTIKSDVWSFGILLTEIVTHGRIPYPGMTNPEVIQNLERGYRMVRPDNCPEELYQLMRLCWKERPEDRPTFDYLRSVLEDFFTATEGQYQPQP
Chain of GSK3 beta (P49841 whole entry): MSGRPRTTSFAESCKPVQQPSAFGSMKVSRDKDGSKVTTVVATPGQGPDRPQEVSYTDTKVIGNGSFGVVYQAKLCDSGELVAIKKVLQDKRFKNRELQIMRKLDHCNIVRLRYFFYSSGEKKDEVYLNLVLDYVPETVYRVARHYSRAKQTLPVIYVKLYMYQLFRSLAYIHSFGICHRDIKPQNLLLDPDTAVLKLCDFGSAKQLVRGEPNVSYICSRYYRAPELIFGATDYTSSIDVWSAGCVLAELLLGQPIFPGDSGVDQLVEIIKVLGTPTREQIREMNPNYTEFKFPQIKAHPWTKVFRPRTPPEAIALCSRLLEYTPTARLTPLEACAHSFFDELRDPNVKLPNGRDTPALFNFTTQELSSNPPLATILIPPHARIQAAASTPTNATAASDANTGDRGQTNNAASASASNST

SMILES | remaining activity at 1 µM (GSK3 beta; 1 µM) | remaining activity at 1 µM (Lck; 1 µM) | remaining activity at 1 µM (PRAK; 1 µM) | remaining activity at 1 µM (ULK2; 1 µM) | remaining activity at 1 µM (NUAK1; 1 µM) | remaining activity at 1 µM (GSK3 beta) | remaining activity at 1 µM (Lck) | remaining activity at 1 µM (PRAK) | remaining activity at 1 µM (ULK2) | remaining activity at 1 µM (NUAK1)
Cc1ccc(F)c(S(=O)(=O)Nc2ccc(-c3nc(OC[C@H]4CN(CCCCCCOCCOCCOCC(=O)N[C@H](C(=O)N5C[C@H](O)C[C@H]5C(=O)NCc5ccc(-c6scnc6C)cc5)C(C)(C)C)CCO4)c4cn[nH]c4n3)cc2)c1 [SGK3-PROTAC1] | 108% | 124% | 115% | 103% | 98% | – | – | – | – | –
COc1ccc(Cl)c(S(=O)(=O)Nc2ccc(-c3nc(OC[C@H]4CNCCO4)c4c(C)n[nH]c4n3)cc2)c1 [290-R, reference compound] | – | – | – | – | – | 90% | 89% | 78% | 46% | 91%
Cc1ccc(F)c(S(=O)(=O)Nc2ccc(-c3nc(OC[C@H]4CN(CCCCCCOCCOCCOCC(=O)N[C@H](C(=O)N5C[C@@H](O)C[C@H]5C(=O)NCc5ccc(-c6scnc6C)cc5)C(C)(C)C)CCO4)c4cn[nH]c4n3)cc2)c1 [cisSGK3-PROTAC1] | 106% | 116% | 119% | 117% | 90% | – | – | – | – | –
Cc1ccc(F)c(S(=O)(=O)Nc2ccc(-c3nc(OC[C@H]4CNCCO4)c4cn[nH]c4n3)cc2)c1 [308-R, reference compound] | – | – | – | – | – | 92% | 98% | 86% | 59% | 103%
